Source: ChEMBL document CHEMBL1147482, “Novel and potent transforming growth factor beta type I receptor kinase domain inhibitor: 7-amino 4-(2-pyridin-2-yl-5,6-dihydro-4H-pyrrolo[1,2-b]pyrazol-3-yl)-quinolines” (Bioorg Med Chem Lett, 2004)

Columns and labels:
[1] = tested on: NIH3T3; experiment: Inhibitory activity tested in NIH 3T3 cells; assay type: functional, cell-based; conditions: Mus musculus
[2] = Inhibitory activity against TGF-beta dependent luciferase production in mink lung cells p3TP Lux; assay type: functional, cell-based
[3] = target: Mitogen-activated protein kinase 14 (Homo sapiens, UniProt Q16539); experiment: Inhibitory activity against Mitogen-activated protein kinase p38
Mitogen-activated protein kinase 14, sequence (Q16539 whole entry): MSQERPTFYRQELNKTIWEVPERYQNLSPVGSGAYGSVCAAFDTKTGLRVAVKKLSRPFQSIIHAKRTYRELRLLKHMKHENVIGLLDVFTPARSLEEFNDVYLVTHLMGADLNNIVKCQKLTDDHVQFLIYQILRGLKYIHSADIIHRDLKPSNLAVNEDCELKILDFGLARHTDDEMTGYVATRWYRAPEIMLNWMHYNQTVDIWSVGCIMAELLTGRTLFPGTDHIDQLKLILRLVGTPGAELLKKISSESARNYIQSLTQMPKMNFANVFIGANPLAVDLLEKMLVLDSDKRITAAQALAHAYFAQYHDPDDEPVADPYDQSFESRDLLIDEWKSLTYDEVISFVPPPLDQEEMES

SMILES | IC50 [2] | IC50 [3] | IC50 [1]
Cc1ccc(-c2c(-c3cccc(C)n3)nn3c2CCC3)cc1 | > 20000 nM | – | > 20000 nM
Cc1cccc(-c2n[nH]cc2-c2ccc(O)cc2)n1 | – | 31000 nM | –
CC(C)c1cccc(-c2nn3c(c2-c2ccnc4ccccc24)CCC3)n1 | 2000 nM | 15000 nM | 2000 nM
Fc1ccc(-c2c(-c3ccccn3)nn3c2CCC3)cc1 | 3860 nM | > 20000 nM | 3330 nM
COc1ccc(-c2c(-c3ccccn3)nn3c2CCC3)cc1 | 6830 nM | – | 4710 nM
OCc1cccc(-c2nn3c(c2-c2ccc(F)cc2)CCC3)n1 | 11800 nM | – | 5620 nM
Cc1cccc(-c2nn3c(c2-c2ccc(S(C)(=O)=O)cc2)CCC3)n1 | > 20000 nM | – | > 20000 nM
CCS(=O)(=O)c1ccc2c(-c3c(-c4ccccn4)nn4c3CCC4)ccnc2c1 | > 20000 nM | 9800 nM | –
Fc1ccc(-c2c(-c3cccc(C(F)(F)F)n3)nn3c2CCC3)cc1 | 2550 nM | – | 1200 nM

Continued by falling IC50 [2], values first:

IC50 [2] | IC50 [3] | SMILES | IC50 [1]
1510 nM | – | Cc1cccc(-c2nn3c(c2-c2ccc(F)c(F)c2)CCC3)n1 | 1040 nM
475 nM | 11000 nM | Fc1ccc(-c2nn3c(c2-c2ccnc4ccccc24)CCC3)nc1 | 664 nM
345 nM | 7900 nM | c1ccc(-c2nn3c(c2-c2ccnc4ccccc24)CCC3)nc1 | 51000 nM
304 nM | 4600 nM | COc1ccc(-c2c(-c3cccc(C)n3)nn3c2CCC3)cc1 | 397 nM
285 nM | 1600 nM | CCSc1ccc2c(-c3c(-c4ccccn4)nn4c3CCC4)ccnc2c1 | 326 nM
196 nM | 1800 nM | Clc1ccc2c(-c3c(-c4ccccn4)nn4c3CCC4)ccnc2c1 | 282 nM
143 nM | 620 nM | CCc1cccc(-c2nn3c(c2-c2ccnc4ccccc24)CCC3)n1 | 500 nM
96 nM | > 20000 nM | Cc1cccc(-c2nn3c(c2-c2ccc(F)cc2)CCC3)n1 | 339 nM
94 nM | 680 nM | Cc1cccc(-c2nn3c(c2-c2ccnc4ccccc24)CCC3)n1 | 280 nM
93 nM | 440 nM | Cc1cccc(-c2nn3c(c2-c2ccnc4cc(Cl)ccc24)CCC3)n1 | 727 nM
86 nM | 59 nM | CCOc1ccc2c(-c3c(-c4cccc(C)n4)nn4c3CCC4)ccnc2c1 | 152 nM
22 nM | 4300 nM | Cc1cccc(-c2nn3c(c2-c2ccc(O)cc2)CCC3)n1 | 105 nM
